# According to ChEMBL document CHEMBL5233217, “Modification of 7-piperazinylquinolone antibacterials to promising anticancer lead compounds: Synthesis and in vitro studies” (Eur J Med Chem, 2020):
# Columns and labels:
# [1] = test system: CT26; experiment: Antitumor activity against mouse CT26 cells assessed as reduction in cell viability incubated for 4 hrs by MTT assay; assay type: functional, cell-based; settings: CT26, 4 h
# [2] = test system: A549; experiment: Antitumor activity against human A549 cells assessed as reduction in cell viability incubated for 4 hrs by MTT assay; assay type: functional, cell-based; settings: A549, 4 h
# [3] = test system: A-431; experiment: Anticancer activity against human A-431 cells assessed as reduction in cell viability incubated for 72 hrs by MTT assay; assay type: functional, cell-based; settings: A-431, 72 h
# [4] = test system: L1210; experiment: Antiproliferative activity against mouse L1210 cells assessed as reduction in cell viability by MTT assay; assay type: functional, cell-based
# [5] = Cytotoxicity against Chinese hamster CHO cells assessed as reduction in cell viability by MTT assay; assay type: toxicity, cell-based, Cricetulus griseus
# [6] = test system: SW480; experiment: Anticancer activity against human SW480 cells assessed as reduction in cell viability incubated for 72 hrs by MTT assay; assay type: functional, cell-based; settings: SW480, 72 h
# [7] = test system: KB; experiment: Anticancer activity against human KB cells assessed as reduction in cell viability incubated for 72 hrs by MTT assay; assay type: functional, cell-based
# [8] = test system: L1210; experiment: Cytotoxicity against mouse L1210 cells assessed as reduction in cell viability by MTT assay; assay type: functional, cell-based
# [9] = test system: EJ; experiment: Anticancer activity against human EJ cells assessed as reduction in cell viability incubated for 72 hrs by MTT assay; assay type: functional, cell-based
# [10] = test system: MCF7; experiment: Anticancer activity against human MCF7 cells assessed as reduction in cell viability incubated for 72 hrs by MTT assay; assay type: functional, cell-based; settings: MCF7, 72 h
# [11] = test system: HL-60; experiment: Cytotoxicity against human HL-60 cells assessed as reduction in cell viability by MTT assay; assay type: functional, cell-based
# [12] = test system: SK-MEL3; experiment: Anticancer activity against human SK-MEL3 cells assessed as reduction in cell viability incubated for 72 hrs by MTT assay; assay type: functional, cell-based; settings: SK-MEL3, 72 h
# [13] = test system: SMMC-7721; experiment: Antiproliferative activity against human SMMC-7721 cells assessed as reduction in cell viability incubated for 24 hrs by MTT assay; assay type: functional, cell-based; settings: SMMC-7721, 24 h
# [14] = test system: Hep 3B2; experiment: Antiproliferative activity against human Hep3B cells assessed as reduction in cell viability; assay type: functional, cell-based
# [15] = test system: L1210; experiment: Anticancer activity against mouse L1210 cells assessed as reduction in cell viability by MTT assay; assay type: functional, cell-based
# [16] = test system: PANC-1; experiment: Antiproliferative activity against human PANC-1 cells assessed as cell growth inhibition incubated for 48 hrs by sulforhodamine B assay; assay type: functional
# [17] = test system: SiHa; experiment: Antiproliferative activity against human SiHa cells assessed as cell growth inhibition incubated for 48 hrs by sulforhodamine B assay; assay type: functional
# [18] = test system: Panel NCI-60 (60 carcinoma cell lines); experiment: Anticancer activity against human Panel NCI-60 (60 carcinoma cell lines) cells assessed as cell growth inhibition incubated for 48 hrs by sulforhodamine B assay; assay type: functional
# [19] = Cytotoxicity against Chinese hamster CHO cells assessed as reduction in cell viability incubated for 48 hrs by MTT assay; assay type: toxicity, cell-based, Cricetulus griseus
# [20] = test system: L1210; experiment: Cytotoxicity against mouse L1210 cells assessed as reduction in cell viability incubated for 48 hrs by MTT assay; assay type: functional, cell-based; settings: L1210, 48 h
# [21] = test system: HL-60; experiment: Cytotoxicity against human HL-60 cells assessed as reduction in cell viability incubated for 48 hrs by MTT assay; assay type: functional, cell-based; settings: HL-60, 48 h
smiles,measurement,setting,value
O=C(O)c1cn(C2CC2)c2cc(N3CCN(CP(=[Se])(c4ccccc4)c4ccccc4)CC3)c(F)cc2c1=O,IC50,[1],150 µM
same,IC50,[2],150 µM
O=C(O)c1cn(C2CC2)c2cc(N3CCNCC3)c(F)cc2c1=O [CIPROFLOXACIN],IC50,[1],330 µM
same,IC50,[3],> 128 µM
same,IC50,[4],> 150 µM
same,IC50,[5],> 150 µM
same,IC50,[6],> 128 µM
same,IC50,[7],> 128 µM
same,IC50,[8],> 150 µM
same,IC50,[9],> 128 µM
same,IC50,[2],330 µM
same,IC50,[10],> 128 µM
same,IC50,[11],> 150 µM
same,IC50,[12],> 128 µM
O=C(O)c1cn(C2CC2)c2cc(N3CCN(CP(=O)(c4ccccc4)c4ccccc4)CC3)c(F)cc2c1=O,IC50,[1],150 µM
same,IC50,[2],150 µM
COc1ccccc1-c1nnc(CSc2nnc(-c3cn4c5c(c(N6CCN(C)CC6)c(F)cc5c3=O)OC[C@@H]4C)o2)o1,IC50,[13],1.3 µM
same,IC50,[5],1 µM
same,IC50,[11],2.2 µM
CCn1cc(-c2nn(CN(C)C)c(=S)o2)c(=O)c2cc(F)c(N3CCN(C)CC3)cc21,IC50,[14],8.4 µM
O=c1c(-c2n[nH]c3cc(-c4ccc(O)c(O)c4)nn23)cn(C2CC2)c2cc(N3CCNCC3)c(F)cc12,IC50,[15],0.14 µM
CCn1cc(C(=O)O)c(=O)c2cnc(N3CCN(C(=O)CCSc4nnnn4Cc4ccccc4)CC3)nc21,GI50,[16],0.06 µM
same,GI50,[17],0.06 µM
COc1cc(/C=N/NC(=O)c2cn(C3CC3)c3cc(N4CCNCC4)c(F)cc3c2=O)cc(OC)c1OC,IC50,[5],25 µM
same,IC50,[8],25 µM
same,IC50,[11],25 µM
CCn1cc(-c2nn(CNc3ccc(Cl)cc3)c(=S)o2)c(=O)c2cc(F)c(N3CCN(C)CC3)cc21,IC50,[14],45.4 µM
O=C(O)c1cn(C2CC2)c2cc(N3CCN(C(=O)CCSc4nnnn4Cc4ccccc4)CC3)c(F)cc2c1=O,GI50,[16],0.06 µM
same,GI50,[17],0.06 µM
CCn1cc(C(=O)O)c(=O)c2cc(F)c(N3CCN(CP(=O)(c4ccccc4)c4ccccc4)CC3)cc21,IC50,[1],150 µM
same,IC50,[2],150 µM
CCn1cc(C(=O)O)c(=O)c2cc(F)c(N3CCN(CP(=S)(c4ccccc4)c4ccccc4)CC3)cc21,IC50,[1],150 µM
same,IC50,[2],150 µM
CCN1CCN(c2cc3c(cc2F)c(=O)c(-c2nnc4sc(-c5cn(C6CC6)c6cc(N7CCN(C)CC7)c(F)cc6c5=O)nn24)cn3C2CC2)CC1,IC50,[4],2.5 µM
O=C(O)c1cn(C2CC2)c2cc(N3CCN(C(=O)CCSc4nnnn4-c4ccc(Br)cc4)CC3)c(F)cc2c1=O,GI50,[16],0.06 µM
same,GI50,[17],0.06 µM
CCn1cc(C(=O)O)c(=O)c2cc(F)c(N3CCNCC3)cc21 [NORFLOXACIN],IC50,[1],330 µM
same,IC50,[3],> 128 µM
same,IC50,[4],> 150 µM
same,IC50,[6],> 128 µM
same,IC50,[7],> 128 µM
same,IC50,[9],> 128 µM
same,IC50,[2],330 µM
same,IC50,[10],> 128 µM
same,IC50,[12],> 128 µM
CCN1CCN(c2cc3c(cc2F)c(=O)c(-c2nn4c(-c5cn(C6CC6)c6cc(N7CCN(CC)CC7)c(F)cc6c5=O)nnc4s2)cn3C2CC2)CC1,IC50,[4],1.2 µM
O=C(N/N=C/c1ccccc1O)c1cn(C2CC2)c2cc(N3CCNCC3)c(F)cc2c1=O,IC50,[5],25 µM
same,IC50,[8],25 µM
same,IC50,[11],25 µM
COc1ccccc1-c1nnc(CSc2nnc(-c3cn4c5c(c(N6CC[N+](C)(C)CC6)c(F)cc5c3=O)OC[C@@H]4C)o2)o1,IC50,[13],0.82 µM
same,IC50,[5],0.41 µM
same,IC50,[11],1.6 µM
C[C@H]1COc2c(N3CCN(C)CC3)c(F)cc3c(=O)c(-c4nnc(S)o4)cn1c23,IC50,[13],> 50 µM
same,IC50,[5],> 50 µM
same,IC50,[11],> 50 µM
COc1ccc(C(=O)CN2CCN(c3cc4c(cc3F)c(=O)c(C(=O)O)cn4-c3ccc(N)cc3F)CC2)cc1,GI50,[18],22 µM
CCN1CCN(c2cc3c(cc2F)c(=O)c(-c2nnc4sc(-c5cn(C6CC6)c6cc(N7CCNCC7)c(F)cc6c5=O)nn24)cn3C2CC2)CC1,IC50,[4],0.2 µM
CCn1cc(C(=O)O)c(=O)c2cc(F)c(N3CCN(S(=O)(=O)c4ccc(Cl)cc4Cl)CC3)cc21,GI50,[18],2.63 µM
CCn1cc(C(=O)O)c(=O)c2cc(F)c(N3CCN(CP(c4ccccc4)c4ccccc4)CC3)cc21,IC50,[1],150 µM
same,IC50,[2],150 µM
COc1ccc(/C=N/NC(=O)c2cn(C3CC3)c3cc(N4CCNCC4)c(F)cc3c2=O)cc1,IC50,[5],25 µM
same,IC50,[8],25 µM
same,IC50,[11],25 µM
O=C(N/N=C/c1ccc([N+](=O)[O-])cc1)c1cn(C2CC2)c2cc(N3CCNCC3)c(F)cc2c1=O,IC50,[5],25 µM
same,IC50,[8],25 µM
same,IC50,[11],25 µM
COc1ccc(/C=N/n2c(-c3cn4c5c(c(N6CCN(C)CC6)c(F)cc5c3=O)OCC4C)nn(CN(C)C)c2=S)cc1O (centres undefined),IC50 at 48 h,[19],0.14 µM
same,IC50,[20],0.14 µM
same,IC50,[21],0.14 µM
COc1cc(/C=N/n2c(-c3cn4c5c(c(N6CCN(C)CC6)c(F)cc5c3=O)OCC4C)nn(CN(C)C)c2=S)ccc1O (centres undefined),IC50 at 48 h,[19],0.14 µM
same,IC50,[20],0.14 µM
same,IC50,[21],0.14 µM
COc1cc(/C=N/n2c(-c3cn4c5c(c(N6CCN(C)CC6)c(F)cc5c3=O)OCC4C)n[nH]c2=S)ccc1O (centres undefined),IC50 at 48 h,[19],10.5 µM
same,IC50,[20],10.5 µM
same,IC50,[21],10.5 µM
COc1ccc(/C=N/NC(=O)c2cn(C3CC3)c3cc(N4CCNCC4)c(F)cc3c2=O)cc1O,IC50,[5],25 µM
same,IC50,[8],25 µM
same,IC50,[11],25 µM
CCn1cc(C(=O)O)c(=O)c2cc(F)c(N3CCN(S(=O)(=O)c4cccc5ccccc45)CC3)cc21,GI50,[18],2.63 µM
CCn1cc(C(=O)O)c(=O)c2cc(F)c(N3CCN(CP(=[Se])(c4ccccc4)c4ccccc4)CC3)cc21,IC50,[1],150 µM
same,IC50,[2],150 µM
CC1COc2c(N3CCN(C)CC3)c(F)cc3c(=O)c(-c4n[nH]c(=S)n4/N=C/c4ccccc4O)cn1c23 (centres undefined),IC50 at 48 h,[19],10.5 µM
same,IC50,[20],10.5 µM
same,IC50,[21],10.5 µM
Cc1cc(C)c(S(=O)(=O)N2CCN(c3cc4c(cc3F)c(=O)c(C(=O)O)cn4C3CC3)CC2)c(C)c1,GI50,[18],2.63 µM
O=C(O)c1cn(C2CC2)c2cc(N3CCN(CP(=S)(c4ccccc4)c4ccccc4)CC3)c(F)cc2c1=O,IC50,[1],150 µM
same,IC50,[2],150 µM
CCN1CCN(c2cc3c(cc2F)c(=O)c(-c2nnc(S)n2N)cn3C2CC2)CC1,IC50,[4],≤ 50 µM
O=C(N/N=C/c1ccc(F)cc1)c1cn(C2CC2)c2cc(N3CCNCC3)c(F)cc2c1=O,IC50,[5],25 µM
same,IC50,[8],25 µM
same,IC50,[11],25 µM
O=c1[nH]cc(F)c(=O)[nH]1 [FLUOROURACIL],GI50,[18],22.6 µM
O=C(O)c1cn(C2CC2)c2cc(N3CCN(CP(c4ccccc4)c4ccccc4)CC3)c(F)cc2c1=O,IC50,[1],150 µM
same,IC50,[2],150 µM
COc1ccc(/C=N/n2c(-c3cn4c5c(c(N6CCN(C)CC6)c(F)cc5c3=O)OCC4C)n[nH]c2=S)cc1O (centres undefined),IC50 at 48 h,[19],10.5 µM
same,IC50,[20],10.5 µM
same,IC50,[21],10.5 µM
CCn1cc(C(=O)O)c(=O)c2cc(F)c(N3CCN(CC(=O)c4ccccc4)CC3)cc21,GI50,[18],22 µM
O=C(N/N=C/c1ccccc1)c1cn(C2CC2)c2cc(N3CCNCC3)c(F)cc2c1=O,IC50,[5],25 µM
same,IC50,[8],25 µM
same,IC50,[11],25 µM
CCn1cc(C(=O)O)c(=O)c2cc(F)c(N3CCN(S(=O)(=O)c4ccc(Cl)cc4)CC3)cc21,GI50,[18],2.63 µM
CCn1cc(C(=O)O)c(=O)c2cnc(N3CCN(C(=O)CCSc4nnnn4-c4ccc(Br)cc4)CC3)nc21,GI50,[16],0.06 µM
same,GI50,[17],0.06 µM
CCn1cc(C(=O)O)c(=O)c2cnc(N3CCN(C(=O)CCSc4nnnn4-c4ccc(F)c(F)c4F)CC3)nc21,GI50,[16],0.06 µM
same,GI50,[17],0.06 µM
CC1COc2c(N3CCN(C)CC3)c(F)cc3c(=O)c(-c4nn(CN(C)C)c(=S)n4/N=C/c4ccccc4O)cn1c23 (centres undefined),IC50 at 48 h,[19],0.14 µM
same,IC50,[20],0.14 µM
same,IC50,[21],0.14 µM
